Here are results for one molecule from patent US20230158071A1, “TUMOR COMBINED IMMUNOTHERAPY” (CRAGE medical Co., Limited, priority 2018, published 2023).

Data set [1] concerns cytokines Granzyme B, IFN-γ, and IL-2. Kind of data set: ELISA of cytokines in supernatant of co-cultured 4T1-EGFRvIII cells and CAR-T cells. It counts as cell-based, mouse. The following applies: 4T1-EGFRvIII co-culture with CAR-T cells, olaparib groups. The protocol:
Olaparib pretreatment group: different concentrations of olaparib (1 μM, 5 μM) are added to the medium for culturing E0771-EGFRVIII or 4T1-EGFRvIII tumor cells respectively, culturing at 37° C. for 24 h, and then the cells are treated with trypsin and resuspended in fresh medium. The untreated mouse T cells and 806-mCD28z-CAR T cells in Example 1 are respectively taken to incubate with E0771-EGFRvIII or 4T1-EGFRVIII cells pretreated with different concentrations of olaparib at a ratio of 1:3, 1:1, and 3:1; 16 hours later, the secretion of LDH in the supernatant is detected by Cytox 96 Non-Radioactive Cytotoxicity Assay, then calculating the killing toxicity of 806-mCD28z CAR T cells to tumor cells pretreated with different concentrations of olaparib. For specific detection steps and calculation methods, see the instructions of Promaga. Cytox 96 Non-Radioactive Cytotoxicity Assay (Promaga, REF: G1782); at the same time, the secretions of cytokines Granzyme B, IFN-γ, and IL-2 in the supernatant are detected by ELISA kit (Lianke Biotech Co. Ltd. CAT: 18^.22), for specific experimental procedures, referring to instructions of MouseGranzyme B, IFN-γ, IL-2 ELISA kit from Lianke Biotech Co, Ltd. […]
Background: An ELISA detects its analyte on a solid surface through an enzyme-linked reagent.

For data set [2], the system named is 4T1-EGFRvIII orthotopic breast cancer xenografts. The experiment in a line: Mouse 4T1-EGFRvIII orthotopic breast cancer xenografts, olaparib and CAR-T. Particulars: olaparib 50 mg/kg i.p. with CAR-T cells. It is filed as in vivo, BALB/c mice. How it is done:
(1) Establishment of mouse orthotopic breast cancer model and respective treatment in groups:
4T1-EGFRvIII cells in the logarithmic growth phase and growing well are collected, inoculating 5×10^5 target cells at right side position of the third pair of accessory breasts of BABL/C mice (mice with normal immune system), and the inoculating day is recorded as the first day (i.e., Day 1).
On the 10th day after tumor inoculation (i.e. Day 10), mouse T cells are taken and 806-mCD28z-CAR-T cell line is constructed as described in step 1 of this example.
On the 14th day after tumor inoculation (i.e., Day 14), the volume of the tumor reaches about 150 mm^3, and the mice are divided in groups: […]
(2) Detection of tumor volume. The tumor volume changes of mice are observed and measured continuously, and recorded three times a week. […]
(4) Detection of CAR-T copy number in tumor tissues. Tumor tissues of each group of mice are ground to extract DNA, and the sequence of retroviral vector fragment is detected by Taqman probe method to determine the DNA copy number of 806-mCD28z-CAR. […]
(6) Detection of MDSC cells in tumor tissue. The tumor tissues of mice in each group are ground, and after enzyme digestion, the changes in the proportion of MDSC cells are analyzed by flow cytometry. […]

For `O=C(c1cc(Cc2n[nH]c(=O)c3ccccc23)ccc1F)N1CCN(C(=O)C2CC2)CC1` [olaparib], in data set [1], the “level of cytokine in the supernatant” value was “not increased”. Further, the “toxicity of combining olaparib with CAR-T cell therapy (from body weights)” value in data set [2] is “do not cause significant toxicity”.
